From patent US20030162837A1, “Carboxyfullerenes and methods of use thereof” (priority 2002, published 2003)
Several values for one entry are separate records, joined by “and”; a condition that tells them apart may be missing. Equal entries are not always repeated. Entries after “also recorded” stand apart in the source; their conditions may differ.

Columns and labels:
[1] = treated animals; cited from earlier work
monkeys = details: mean survival 25 months; cited from earlier work
[2] = Superoxide elimination: cytochrome c reduction (hypoxanthine/xanthine oxidase); assay type: biochemical; details: for IC50: superoxide from hypoxanthine/xanthine oxidase
Protocol: (a) Superoxide was generated by oxidation of hypoxanthine by xanthine oxidase and assayed by reduction of cytochrome c (at absorbance maximum […]).
The ability of C3 to eliminate superoxide radical was assessed using three separate methods. In the first, O2 ? was generated by metabolism of hypoxanthine by xanthine oxidase (reaction 1). O2 ? production was determined by following cytochrome c reduction (absorbance max 550 nm) on a microtiter platereader as described (Quick et al., 2000). Stock solutions of cytochrome c were evaluated on a Beckman DU650 spectrophotometer to verify that that cytochrome c stock was fully oxidized prior to use, and to confirm the concentration of the stock. The reaction was run in the presence of superoxide dismutase (bovine SOD1, Sigma) to determine the non-specific reduction of cytochrome c (i.e. the rate of reaction in the absence of O2 ? ).

xanthine oxidase [3] = molecular target: T1, xanthine oxidase (Homo sapiens, UniProt P47989); experiment: Xanthine oxidase metabolism of hypoxanthine (purines by HPLC); assay type: biochemical
Protocol: Hypoxanthine and its metabolites xanthine and uric acid were analyzed by HPLC at specific times during the xanthine oxidase: hypoxanthine reaction. The reaction was allowed to run for 40 or 100 minutes and was stopped by the addition of trifloroacetic acid (0.1% TFA) to denature xanthine oxidase. Samples were injected onto the HPLC and separated on a C18 column.

C57B6 mice = details: chronic treatment starting at 18 months of age; cited from earlier work
Fisher 344 rats [4] = details: same dose; cited from earlier work
rats = rats treated from age 96 weeks through end of life; control 147+/−1; cited from earlier work
Drosophila = details: cited from earlier work
Fisher 344 rats [5] = details: cited from earlier work
[6] = Oxygen consumption studies with H2O2 (re-evolution of oxygen); assay type: biochemical
[7] = Pharmacokinetics study in mice; assay type: in vivo
Excerpt: […]. […] […].

xanthine oxidase [8] = molecular target: T1, xanthine oxidase; experiment: O2 consumption during the xanthine oxidase reaction (Clark-type O2 electrode); assay type: biochemical; details: in the presence of C3 compared with SOD
Protocol: O2 consumption during the xanthine oxidase reaction was determined using an oxymetry chamber equipped with a Clark-type O2 electrode (Hansatech, UK).

[9] = Characterization of C3 after exposure to H2O2 (HPLC, spectroscopy); assay type: physicochemical; details: H2O2 20-200 mM; HPLC and spectroscopy
[10] = Characterization of C3 after exposure to superoxide (HPLC, mass spectrometry); assay type: physicochemical
Excerpt: Samples were then immediately injected onto the HPLC.
To maximize the amount of modified C3 present should structural changes occur, hexacarboxylic acid C3 and its decarboxylation products were exposed to superoxide generated by the xanthine oxidase reaction for four consecutive reactions by re-addition of the substrate, hypoxanthine. […] Compounds were extracted from the reaction mixture, and re-injected onto the HPLC. […] Peaks were collected and evaluated by mass spectrometry, but no changes in the molecular ions were observed.

[11] = test system: C57B6NIH male and female mice; experiment: Longevity trial with mice (Kaplan-Meier survival, weights); assay type: in vivo
Protocol: FIG. 4 illustrates the survival curve for mice treated by the process of the instant invention vs. control. […]. The date of spontaneous death for each mouse was recorded, and used to calculate the lifespan. Lifespan of each mouse was calculated in months because mice received from the NIA rodent colony have their birth month, but not their specific birth date, recorded. Average survival was calculated for each treatment and the mean lifespans were compared using a t-test with significance set to p<0.05 (actual p=0.033). The lifespan of control mice was 23.5±5.5 months (mean±SD, n=8) and of C3-treated mice was 28.7±3.4 (mean±SD, n=9). This calculation includes one C3-treated mouse which is still alive as of Feb. 21, 2002, and whose lifespan was included as of this date. Continued survival by this mouse will further increase the average difference in lifespan, and will decrease the p value (increase the significance). […].
Twelve month old C57B6NIH male and female mice (equal numbers) were purchased from the National Institute on Aging (NIA) Aging Rodent Colony. Mice shipped from this colony were not selected in any way for health, tumors or other disabilities, and all mice obtained from the colony were subsequently enrolled in the study. Mice were randomly placed in same-sex numbered cages, two per cage, ear-punched for identification, and weighed. Mice were then trained on a rotorod twice per week for three sessions, and were then tested on the rotorod in three sessions to measure motor performance at baseline. Cages were then assigned to receive either treatment A or treatment B by an observer who was blind to what these treatments would be.
Solution A or solution B was placed in the water bottles, and solutions were topped-off twice weekly, and filtered to remove any particulates biweekly by an individual blind to the identity of the solutions. At 19 months of age, mice were weighed again, and underwent another round of rotorod training and testing. Mice were allowed to die spontaneously, and their date of death were recorded by the Animal Housing Facility staff as part of the normal operating procedure of the facility. […] When animals died, the cage number, identity of the animal, and the date of death were recorded on the death notice, which was then sent to the laboratory, where the information was entered into the database.
In addition, because longevity was increased by the oral dosing of a drug, it is the first practical method for achieving increased longevity in metazoans.

[12] = Inhibition of pyrogallol autoxidation to purpurogallin; assay type: biochemical
Protocol: Pyrogallol autooxidation to purpurogallin was assayed as described. Briefly, Tris-cacodylic acid buffer (55.6 mM) buffer, pH 8.2, was prepared with 1 mM diethyltriaminopentaacetic acid (DTPA) (TCB solution). The pyrogallol solution contained 10 mM pyrogallol in 10 mM HCl. To 0.9 ml of TCB, 0.1 ml of pyrogallol solution was added, rapidly vortexed, and placed in the cuvette. The increase in absorbance at 420 nm was followed for 60 sec in a Beckman DU 650 spectrophotometer at room temperature. The rate of pyrogallol autoxidation in the presence of SOD (100 U/ml) was subtracted from that of the control reaction without SOD to determine the rate that was specifically due to reaction with O2 ? .

T1 sequence (P47989 whole entry, species assumed): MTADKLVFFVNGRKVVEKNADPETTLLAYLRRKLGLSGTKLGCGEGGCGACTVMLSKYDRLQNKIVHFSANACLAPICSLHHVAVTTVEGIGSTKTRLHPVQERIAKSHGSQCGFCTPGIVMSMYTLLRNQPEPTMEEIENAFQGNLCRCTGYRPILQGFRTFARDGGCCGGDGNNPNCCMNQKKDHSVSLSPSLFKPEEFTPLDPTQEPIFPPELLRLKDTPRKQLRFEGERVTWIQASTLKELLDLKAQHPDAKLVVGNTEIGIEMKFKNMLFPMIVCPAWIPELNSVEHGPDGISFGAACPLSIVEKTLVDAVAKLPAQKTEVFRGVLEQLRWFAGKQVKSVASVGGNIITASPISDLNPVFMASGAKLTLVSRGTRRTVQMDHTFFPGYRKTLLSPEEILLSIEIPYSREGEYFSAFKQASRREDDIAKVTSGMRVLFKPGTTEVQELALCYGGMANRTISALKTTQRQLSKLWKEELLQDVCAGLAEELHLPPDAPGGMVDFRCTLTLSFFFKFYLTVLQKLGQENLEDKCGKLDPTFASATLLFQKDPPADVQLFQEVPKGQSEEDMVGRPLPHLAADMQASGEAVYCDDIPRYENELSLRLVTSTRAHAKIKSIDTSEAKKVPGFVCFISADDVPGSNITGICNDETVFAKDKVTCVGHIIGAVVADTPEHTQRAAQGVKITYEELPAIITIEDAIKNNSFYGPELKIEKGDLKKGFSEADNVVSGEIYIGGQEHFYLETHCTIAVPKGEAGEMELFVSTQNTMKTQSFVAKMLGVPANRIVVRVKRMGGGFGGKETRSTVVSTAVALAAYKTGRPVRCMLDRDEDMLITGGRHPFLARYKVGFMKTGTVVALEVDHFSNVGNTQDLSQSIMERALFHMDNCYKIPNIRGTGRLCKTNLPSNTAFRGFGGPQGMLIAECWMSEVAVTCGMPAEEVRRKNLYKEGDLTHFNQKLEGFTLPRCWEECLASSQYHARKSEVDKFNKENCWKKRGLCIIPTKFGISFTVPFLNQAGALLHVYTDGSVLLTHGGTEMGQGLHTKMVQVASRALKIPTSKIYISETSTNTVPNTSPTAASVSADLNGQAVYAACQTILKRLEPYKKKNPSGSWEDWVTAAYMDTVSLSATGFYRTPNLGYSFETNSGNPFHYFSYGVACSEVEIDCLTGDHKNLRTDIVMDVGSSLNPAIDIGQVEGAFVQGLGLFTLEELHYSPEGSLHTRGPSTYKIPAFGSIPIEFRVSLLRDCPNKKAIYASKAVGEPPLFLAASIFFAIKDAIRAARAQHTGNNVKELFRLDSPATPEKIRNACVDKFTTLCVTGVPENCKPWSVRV

**Q.** Which results are given for `O=CC[C@@H](O)[C@H](O)[C@H](O)CO` [2-deoxyglucose]?
**A.** body temperature [1]: lowered; plasma insulin levels [1]: decreased; lifespan of one treated monkey (monkeys): 38 months

**Q.** Which IC50 [2] does the source give for `O=C(O)c1ccc(/C2=C3\C=CC(=N3)/C(c3ccc(C(=O)O)cc3)=c3/cc/c4[n]3[Mn]([Cl])[n]3c2ccc3/C(c2ccc(C(=O)O)cc2)=C2/C=CC(=N2)\C=4c2ccc(C(=O)O)cc2)cc1` [MnTBAP, reference compound] here?
**A.** Its IC50 is 50 µM.

**Q.** With `O=c1[nH]c(=O)c2c[nH]nc2[nH]1` [Oxypurinol, reference compound] as the molecule, how does the “inhibition of purine metabolism” value (xanthine oxidase [3]; concentrations similar to those previously reported (data not shown)) read?
**A.** Its value is “completely inhibit”.

**Q.** With `C#CCN(C)[C@H](C)Cc1ccccc1` [deprenyl] as the molecule, how does the survival benefit (C57B6 mice) read?
**A.** The survival benefit was “failed to show any survival benefit”.

**Q.** What about the “effect on mortality and lifespan” value (Fisher 344 rats [4]) of the same molecule?
**A.** Its value is “greater mortality and shortened lifespan”.

**Q.** And the lifespan (rats)?
**A.** Its lifespan is 198+/−2 weeks.

**Q.** And the effect on lifespan (Drosophila)?
**A.** Its effect on lifespan is “did not show an increase in lifespan”.

**Q.** What about the increase in longevity (Fisher 344 rats [5]; not statistically significant) of the same molecule?
**A.** Its increase in longevity is 7%.

**Q.** And the mean survival (Fisher 344 rats [5]; treatment from 18 months of age, controls 28)?
**A.** The mean survival was 30 months.

**Q.** Which “Reaction rate (k)” value ([2]; reaction with superoxide, cytochrome c reduction) does the source give for “SOD: superoxide dismutase (bovine SOD1, Sigma) [reference compound]” here?
**A.** The value was 2e+09 M⁻¹ s⁻¹.

**Q.** And the IC50 [2]?
**A.** Its IC50 is 0.5 µM.

**Q.** Which “re-evolution of oxygen from H2O2” value [6] does the source give for catalase [reference compound] here?
**A.** The value was “rapid re-evolution of oxygen”.

**Q.** Which “inhibition of xanthine oxidase metabolism of hypoxanthine” value (xanthine oxidase [3]; 300 μM) does the source give for e,e,e C60[C(COOH)2]3 [C3] here?
**A.** Its value is under 10%.

**Q.** And the “inhibition of xanthine oxidase metabolism of hypoxanthine” value (xanthine oxidase [3]; 500 μM)?
**A.** The value was 15%.

**Q.** And the plasma half-life ([7]; mice)?
**A.** Its plasma half-life is 8 h.

**Q.** What about the route of clearance ([7]; mice) of the same molecule?
**A.** Its route of clearance is “excretion through both the liver and kidney”.

**Q.** What about the “fraction of dose absorbed when given orally” value ([7]; oral (e.g. drinking water) relative to intravenous, intraperitoneal or subcutaneous) of the same molecule?
**A.** Its value is 1/15.

**Q.** What about the “re-evolution of oxygen from H2O2” value [6] of the same molecule?
**A.** Its value is “significantly slower than that seen with catalase”.

**Q.** What about the “oxygen utilization by xanthine oxidase” value (xanthine oxidase [8]) of the same molecule?
**A.** The value was “similar”.

**Q.** What about the “structural change after exposure to H2O2” value [9] of the same molecule?
**A.** The value was “No change; also recorded: no change in the size or distribution of peaks; also recorded: no permanent chemical or structural changes”.

**Q.** And the “structural change after exposure to superoxide” value [10]?
**A.** The value was “No change in the size or distribution of peaks; also recorded: no permanent chemical or structural changes”.

**Q.** What about the “concentration of superoxide in the reaction” value ([2]; 500 μM) of the same molecule?
**A.** Its value is “zero”.

**Q.** What about the IC50 [2] of the same molecule?
**A.** Its IC50 is 330 µM.

**Q.** And the effect on weight ([11]; C3-treated mice)?
**A.** The effect on weight was “not accompanied by a reduction in weight”.

**Q.** What about the “lifespan (mean±SD)” value ([11]; C57B6 mice, C3 0.5 mg/kg/day in drinking water from age 12 months through end of life, n=9, control 23.5±5.5, 0.5 mg/kg/day) of the same molecule?
**A.** The value was 28.7±3.4 months and 28.7 months.

**Q.** What about the “weight at 19 months, females” value ([11]; females, control 27±1) of the same molecule?
**A.** Its value is 29+1 grams.

**Q.** And the “weight at 19 months, males” value ([11]; males, control 35±4)?
**A.** The value was 35±6 grams.

**Q.** What about the IC50 [12] of the same molecule?
**A.** The IC50 was 360 µM.
